Experimental data reported in PMC2263054, “Functional evolution of the vitamin D and pregnane X receptors” (BMC Evolutionary Biology, 2007).

Tests used:
Human VDR = target: T1, Human VDR (Homo sapiens, UniProt P11473); assay: luciferase reporter transactivation assay in HepG2-NTCP cells, full-length hVDR with CYP3A4-PXRE-Luc; settings: HepG2-NTCP cells, luciferase reporter; unit not given; also cells saying No effect
T1 sequence (P11473 1-427): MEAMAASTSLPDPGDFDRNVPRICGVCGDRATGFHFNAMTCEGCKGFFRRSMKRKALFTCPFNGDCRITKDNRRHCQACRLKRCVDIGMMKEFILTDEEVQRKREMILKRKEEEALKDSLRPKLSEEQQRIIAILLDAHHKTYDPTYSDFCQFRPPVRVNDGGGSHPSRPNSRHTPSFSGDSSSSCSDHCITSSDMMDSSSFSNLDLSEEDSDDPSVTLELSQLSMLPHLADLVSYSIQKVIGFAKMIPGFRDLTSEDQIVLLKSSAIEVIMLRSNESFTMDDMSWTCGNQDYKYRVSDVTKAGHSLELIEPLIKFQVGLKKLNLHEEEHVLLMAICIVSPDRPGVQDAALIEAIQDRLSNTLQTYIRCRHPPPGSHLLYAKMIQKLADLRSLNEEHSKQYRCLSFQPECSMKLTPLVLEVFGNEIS

Mouse VDR = target: T2, Mouse VDR (Mus musculus, UniProt P48281); assay: luciferase reporter transactivation assay in HepG2-NTCP cells, full-length mVDR with CYP3A4-PXRE-Luc; settings: HepG2-NTCP cells, luciferase reporter; unit not given; also cells saying No effect
T2 sequence (P48281 1-422): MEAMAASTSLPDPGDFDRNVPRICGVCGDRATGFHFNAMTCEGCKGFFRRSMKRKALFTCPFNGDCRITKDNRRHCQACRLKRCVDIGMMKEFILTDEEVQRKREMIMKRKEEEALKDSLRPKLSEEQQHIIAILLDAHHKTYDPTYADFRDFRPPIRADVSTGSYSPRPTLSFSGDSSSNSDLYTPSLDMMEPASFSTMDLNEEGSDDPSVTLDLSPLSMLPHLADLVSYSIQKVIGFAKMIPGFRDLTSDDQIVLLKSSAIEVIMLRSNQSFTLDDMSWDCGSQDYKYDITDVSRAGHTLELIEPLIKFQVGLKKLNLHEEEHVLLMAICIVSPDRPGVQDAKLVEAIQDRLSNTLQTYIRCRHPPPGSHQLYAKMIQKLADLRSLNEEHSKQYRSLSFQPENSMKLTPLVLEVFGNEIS

Xenopus laevis VDR = target: T3, Xenopus laevis VDR (Xenopus laevis, UniProt O13124); assay: luciferase reporter transactivation assay in HepG2-NTCP cells, GAL4/xlVDR LBD chimera with tk-UAS-Luc; type: cell-based; settings: for Xenopus VDR EC50 ± SD: HepG2-NTCP cells, luciferase reporter, unit not given, also cells saying No effect
T3 sequence (O13124 90-422): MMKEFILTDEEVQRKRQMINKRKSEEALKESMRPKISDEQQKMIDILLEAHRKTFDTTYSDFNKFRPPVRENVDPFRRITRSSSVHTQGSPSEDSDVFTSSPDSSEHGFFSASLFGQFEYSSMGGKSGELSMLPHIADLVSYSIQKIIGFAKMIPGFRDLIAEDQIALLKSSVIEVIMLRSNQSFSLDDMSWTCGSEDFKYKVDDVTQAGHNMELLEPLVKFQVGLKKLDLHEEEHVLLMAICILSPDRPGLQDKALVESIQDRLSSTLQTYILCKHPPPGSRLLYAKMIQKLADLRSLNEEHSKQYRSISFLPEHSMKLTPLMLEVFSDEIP

Zebrafish VDR = target: T4, Zebrafish VDR (Danio rerio, UniProt Q9PTN2); assay: luciferase reporter transactivation assay in HepG2-NTCP cells, GAL4/zfVDR LBD chimera with tk-UAS-Luc; type: cell-based; settings: for Zebrafish VDR EC50 ± SD: HepG2-NTCP cells, luciferase reporter, unit not given, also cells saying No effect
T4 sequence (Q9PTN2 121-453): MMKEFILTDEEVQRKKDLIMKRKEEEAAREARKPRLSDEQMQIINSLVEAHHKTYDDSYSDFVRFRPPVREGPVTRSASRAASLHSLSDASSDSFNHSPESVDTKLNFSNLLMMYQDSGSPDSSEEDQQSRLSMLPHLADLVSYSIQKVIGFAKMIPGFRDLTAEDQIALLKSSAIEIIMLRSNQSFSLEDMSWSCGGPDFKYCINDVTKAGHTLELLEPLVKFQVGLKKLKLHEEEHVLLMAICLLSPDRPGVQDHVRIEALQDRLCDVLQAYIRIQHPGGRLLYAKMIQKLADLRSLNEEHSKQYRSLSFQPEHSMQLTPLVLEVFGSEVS

Sea lamprey VDR = target: T5, Sea lamprey VDR (Petromyzon marinus, UniProt Q7ZZY9); type: cell-based; settings: for Sea lamprey VDR EC50 ± SD: HepG2-NTCP cells, luciferase reporter, unit not given, also cells saying No effect
T5 sequence (Q7ZZY9 92-406): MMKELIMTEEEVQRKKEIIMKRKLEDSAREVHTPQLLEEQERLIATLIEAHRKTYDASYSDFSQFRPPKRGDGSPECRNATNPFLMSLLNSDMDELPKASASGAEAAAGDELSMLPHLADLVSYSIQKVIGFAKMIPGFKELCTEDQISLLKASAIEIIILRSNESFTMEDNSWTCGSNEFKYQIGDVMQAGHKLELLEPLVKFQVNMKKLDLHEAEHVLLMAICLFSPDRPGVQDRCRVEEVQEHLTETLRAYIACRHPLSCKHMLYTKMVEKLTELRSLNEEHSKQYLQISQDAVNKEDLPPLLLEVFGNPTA

[1] = tested on: ethoxyresorufin O-deethylase (EROD) activity (CYP1A-like activity); assay: EROD assay in zebrafish primary hepatocytes; settings: for maximal rate of EROD activity: zebrafish primary hepatocytes, 24 hour exposure (Figure 3 legend: 48-hour)
Description: (§1) The cells are cultured at 26°C in ambient atmosphere.

[2] = tested on: testosterone 6β-hydroxylation activity (CYP3A-like activity); assay: testosterone hydroxylation (HPLC) in zebrafish primary hepatocytes
Description: as §1
(§2) 100 μL of sample, calibration standard, or quality material standard were pipetted into separate microcentrifuge tubes and mixed with 100 μL of methanol. Samples were vortexed and centrifuged at 13,000 rpm for 4 min. The supernatant was then injected into the HPLC.
(§3) The flow rate was 1.2 mL/min and total run time was 25 min.

zebrafish PXR = settings: luciferase reporter in HepG2 cells, normalized to 20 μM androstanol
EROD activity [3] = assay: EROD assay in African clawed frog primary hepatocytes; type: cell-based, Xenopus laevis; settings: 48 hour exposure
Description: Xenopus laevis primary hepatocytes were cultured by a protocol adapted from a published report. Frogs are sacrificed with MS-222, rinsed with 70% ethanol, and the liver lobes perfused via the heart, initially with 375 mL Barth (88 mM NaCl, 1 mM K2SO4, and 10 mM HEPES-NaOH, pH 7.4) containing 0.82 mM MgCl2 and 0.1 mg/mL heparin, and then with 25 mL Barth containing 2.22 mM Ca(NO3)2, 2.74 mM CaCl2, and 200 U/mL type I collagenase (Worthington Chemicals, Lakewood, NJ). Livers are minced to fine pieces in 12.5 mL Barth-collagenase solution and then incubated for 10 min at room temperature, periodically disaggregating the liver pieces with a Pasteur pipette. The liver cells are then placed on a shaking incubator for 5 min at room temperature, followed by another 10 min of periodic pipetting to complete disaggregation. Cells are then filtered through a 130 μm Nitex nylon mesh (Fisher Scientific), following by spinning at 500 g for 5 min at 4°C. The supernatant is then aspirated and diluted to 50 mL with Barth plus MgCl2 and then allowed to settle while cooled in ice for 30 min. The supernatant is removed, and the cellular pellet is resuspended and subjected to one more round of nylon mesh filtration, dilution in Barth plus MgCl2, and settling while cooled in ice. […]

[4] = tested on: 6β- and 12α-hydroxylation of testosterone; assay: testosterone hydroxylation (HPLC) in African clawed frog primary hepatocytes; type: cell-based, Xenopus laevis; settings: relative to vehicle control
Description: Xenopus laevis primary hepatocytes were cultured by a protocol adapted from a published report. Frogs are sacrificed with MS-222, rinsed with 70% ethanol, and the liver lobes perfused via the heart, initially with 375 mL Barth (88 mM NaCl, 1 mM K2SO4, and 10 mM HEPES-NaOH, pH 7.4) containing 0.82 mM MgCl2 and 0.1 mg/mL heparin, and then with 25 mL Barth containing 2.22 mM Ca(NO3)2, 2.74 mM CaCl2, and 200 U/mL type I collagenase (Worthington Chemicals, Lakewood, NJ). Livers are minced to fine pieces in 12.5 mL Barth-collagenase solution and then incubated for 10 min at room temperature, periodically disaggregating the liver pieces with a Pasteur pipette. The liver cells are then placed on a shaking incubator for 5 min at room temperature, followed by another 10 min of periodic pipetting to complete disaggregation. Cells are then filtered through a 130 μm Nitex nylon mesh (Fisher Scientific), following by spinning at 500 g for 5 min at 4°C. The supernatant is then aspirated and diluted to 50 mL with Barth plus MgCl2 and then allowed to settle while cooled in ice for 30 min. The supernatant is removed, and the cellular pellet is resuspended and subjected to one more round of nylon mesh filtration, dilution in Barth plus MgCl2, and settling while cooled in ice. The supernatant is removed and the remaining cells are washed once with Barth plus MgCl2 and then centrifuged at 500 g for 5 min at 4°C. The cells are then resuspended in 0.6 × Coon's Modified Ham's F-12 medium (Invitrogen) supplemented with 0.1 × Barth (88 mM NaCl, 1 mM K2SO4, 10 mM HEPES), 200 U/mL penicillin G, 100 μg/mL streptomycin sulfate, 2 mM glutamine, 0.2% glucose, and 10 μg/mL bovine insulin (Calbiochem), with the final pH adjusted to 7.5. […] Cells are cultured at 20°C in ambient atmosphere.
Testosterone metabolites were identified and quantitated by HPLC. […] The supernatant was then injected into the HPLC.

[5] = tested on: testosterone 6β-hydroxylation; assay: testosterone hydroxylation (HPLC) in sea lamprey primary hepatocytes; type: cell-based; settings: concentration ranges per compound
Description: as §2, §3

[6] = tested on: flurbiprofen 4-hydroxylation activity (CYP2C-like activity); settings: zebrafish primary hepatocytes, 48-hour exposure; TCDD 1 nM, androstanol 200 μM
EROD activity [7] = assay: EROD assay in sea lamprey primary hepatocytes; settings: 24–48 hr exposure
[8] = tested on: Flurbiprofen 4-hydroxylation; assay: flurbiprofen hydroxylation assay in sea lamprey primary hepatocytes; type: cell-based; settings: 48 hour treatment, 5α-petromyzonol 20 μM, 3-MC 5 μM, basal 2.8
[9] = screening for activators, at least three concentrations of each drug

Clc1cc2c(cc1Cl)Oc1cc(Cl)c(Cl)cc1O2 [2,3,7,8-Tetrachlorodibenzo-p-dioxin, 2,3,7,8-tetrachlorodibenzo-p-dioxin]
Human VDR EC50 ± SD (Human VDR): No effect
Mouse VDR EC50 ± SD (Mouse VDR): No effect
Xenopus VDR EC50 ± SD (Xenopus laevis VDR): No effect
Zebrafish VDR EC50 ± SD (Zebrafish VDR): No effect
Sea lamprey VDR EC50 ± SD (Sea lamprey VDR): No effect
maximal rate of EROD activity [1]: 33.0 pmol/min/mg protein
EC50 at 24 h ([1]; zebrafish, pH 7.8): 0.15 ± 0.022 nM
EC50 at 48 h ([2]; zebrafish): 0.154 ± 0.03 nM
maximal rate of testosterone 6β-hydroxylation ([2]; zebrafish primary hepatocytes, 48-hour exposure): 2830 pmol/min/mg protein
activation of recombinant zebrafish PXR (zebrafish PXR): all activate recombinant zebrafish PXR
maximal rate of EROD activity (EROD activity [3]): 9.8 pmol/min/mg protein
EC50 (EROD activity [3]; Xenopus laevis, Hepatocyte, read-out: EC50 for increase of EROD activity): 6.5 ± 0.77 nM
effect on 6β- and 12α-hydroxylation of testosterone [4]: neither activity was substantially increased relative to vehicle control
effect on testosterone 6β-hydroxylation [5]: None of these compounds produced significant increases in testosterone 6β-hydroxylation
Ciona VDR/PXR relative efficacy (Ciona VDR/PXR; relative to maximal reference compound (20 μM 6-formylindolo-[3,2-b]-carbazole, efficacy = 1.0)): 1.80
activation of ciVDR/PXR (Ciona VDR/PXR; unpublished data of the authors): activated
effect on flurbiprofen 4-hydroxylation activity [6]: Lesser increases relative to vehicle control
effect on EROD activity (EROD activity [7]): did not alter EROD activity

Cc1ccc2cc3c(ccc4ccccc43)c3c2c1CC3 [3-Methylcholanthrene]
Effect on Xenopus laevis VDR (Xenopus laevis VDR; [9]): No effect
Effect on zebrafish VDR (Zebrafish VDR; [9]): No effect
Effect on sea lamprey VDR (Sea lamprey VDR; [9]): No effect
maximal rate of EROD activity [1]: 28.1 pmol/min/mg protein
EC50 ([1]; zebrafish, pH 7.8): 373 ± 22 nM
effect on testosterone 6β-hydroxylation [5]: None of these compounds produced significant increases in testosterone 6β-hydroxylation
Flurbiprofen 4-hydroxylation activity [8]: 0.33 nmol/min/mg protein
effect on EROD activity (EROD activity [7]): did not alter EROD activity

C[C@H](CCCO)[C@H]1CC[C@H]2[C@@H]3[C@H](O)C[C@H]4C[C@H](O)CC[C@]4(C)[C@H]3C[C@H](O)[C@]12C [5α-Petromyzonol, 5α-cholan-3α,7α,12α,24-tetrol]
Human VDR EC50 ± SD (Human VDR): No effect
Mouse VDR EC50 ± SD (Mouse VDR): No effect
Xenopus VDR EC50 ± SD (Xenopus laevis VDR): No effect
Zebrafish VDR EC50 ± SD (Zebrafish VDR): No effect
Sea lamprey VDR EC50 ± SD (Sea lamprey VDR): No effect
effect on testosterone 6β-hydroxylation [5]: None of these compounds produced significant increases in testosterone 6β-hydroxylation
Flurbiprofen 4-hydroxylation activity [8]: 0.21 nmol/min/mg protein
Ciona VDR/PXR EC50 ± SD (Ciona VDR/PXR; HepG2-NTCP cells, luciferase reporter, unit not given, also cells saying No effect): No effect
effect on EROD activity (EROD activity [7]): did not alter EROD activity
